Measured values taken from patent US20220386606A1, “SPECIFICALLY SUBSTITUTED 3-PHENYL-5-SPIROCYCLOPENTYL-3-PYRROLIN-2-ONES AND THEIR USE AS HERBICIDES” (Bayer Aktiengesellschaft, priority 2019, published 2022).

How the values were obtained:
[1] = tested on: POLCO; experiment: Pre-emergence herbicidal action against POLCO; type: in vivo, Polygonum convolvulus; conditions: 320 g/ha
Procedure, shortened: (§1)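 Weed and crop seeds sown in sandy loam, then WP or EC formulations sprayed onto covering soil pre-emergence as aqueous suspension or emulsion at 600 to 800 L/ha water with 0.2% wetting agent. Greenhouse-grown; visual damage scored after 3 weeks versus untreated controls, 0–100%.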

[2] = tested on: AMARE; experiment: Pre-emergence herbicidal action against AMARE; type: in vivo, Amaranthus retroflexus; conditions: 320 g/ha
Procedure, shortened: as §1

[3] = tested on: LOLRI; experiment: Post-emergence herbicidal action against LOLRI; type: in vivo, Lolium rigidum; conditions: 80 g/ha, visual assessment about 3 weeks after treatment vs untreated controls
Procedure, shortened: (§2)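 Visual scoring about 3 weeks after treatment gave % herbicidal action relative to untreated plants (0% = control-like, 100% = plants dead). Compounds, as WP or EC with 0.2% wetting agent, were sprayed onto green parts at 600–800 l/ha. Plants had reached the one-leaf stage, 2–3 weeks after sowing in sandy loam under greenhouse conditions.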

[4] = tested on: ABUTH; experiment: Post-emergence herbicidal action against ABUTH; type: in vivo, Abutylon threophrasti; conditions: 80 g/ha, visual assessment about 3 weeks after treatment vs untreated controls
Procedure, shortened: as §2

[5] = tested on: AVEFA; experiment: Post-emergence herbicidal action against AVEFA; type: in vivo, Avena fatua; conditions: 80 g/ha, visual assessment after about 3 weeks
Procedure, shortened: as §2

[6] = tested on: ALOMY; experiment: Pre-emergence herbicidal action against ALOMY; type: in vivo, Alopecurus myosuroides; conditions: 320 g/ha, scored visually after 3 weeks vs untreated controls
Procedure, shortened: as §1

[7] = tested on: VIOTR; experiment: Pre-emergence herbicidal action against VIOTR; type: in vivo, Viola tricolor; conditions: 320 g/ha
Procedure, shortened: as §1

[8] = tested on: DIGSA; experiment: Pre-emergence herbicidal action against DIGSA; type: in vivo, Digitaria sanguinalis; conditions: 320 g/ha, scored visually after 3 weeks vs untreated controls
Procedure, shortened: as §1

[9] = tested on: SETVI; experiment: Pre-emergence herbicidal action against SETVI; type: in vivo, Setaria viridis; conditions: 320 g/ha, scored visually after 3 weeks vs untreated controls
Procedure, shortened: as §1

[10] = tested on: AVEFA; experiment: Pre-emergence herbicidal action against AVEFA; type: in vivo, Avena fatua; conditions: 320 g/ha, scored visually after 3 weeks vs untreated controls
Procedure, shortened: as §1

[11] = tested on: ALOMY; experiment: Post-emergence herbicidal action against ALOMY; type: in vivo, Alopecurus myosuroides; conditions: 80 g/ha, visual assessment after about 3 weeks
Procedure, shortened: as §2

[12] = tested on: ECHCG; experiment: Pre-emergence herbicidal action against ECHCG; type: in vivo, Echinochloa crus-galli; conditions: 320 g/ha, scored visually after 3 weeks vs untreated controls
Procedure, shortened: as §1

[13] = tested on: ECHCG; experiment: Post-emergence herbicidal action against ECHCG; type: in vivo, Echinochloa crus-galli; conditions: 80 g/ha, visual assessment about 3 weeks after treatment vs untreated controls
Procedure, shortened: as §2

[14] = tested on: ABUTH; experiment: Pre-emergence herbicidal action against ABUTH; type: in vivo, Abutylon threophrasti; conditions: 320 g/ha
Procedure, shortened: as §1

[15] = tested on: LOLRI; experiment: Pre-emergence herbicidal action against LOLRI (Table 8, titled post-emergence at 320 g/ha); type: in vivo, Lolium rigidum; conditions: table stands in the pre-emergence section
Procedure, shortened: as §1

[16] = tested on: POLCO; experiment: Post-emergence herbicidal action against POLCO; type: in vivo, Polygonum convolvulus; conditions: 80 g/ha, visual assessment about 3 weeks after treatment vs untreated controls
Method: (§3) Seeds of monocotyledonous and dicotyledonous weed and crop plants are laid out in sandy loam soil in wood-fiber pots, covered with soil and cultivated in a greenhouse under good growth conditions. 2 to 3 weeks after sowing, the test plants are treated at the one-leaf stage. The compounds of the invention, formulated in the form of wettable powders (WP) or as emulsion concentrates (EC), are then sprayed onto the green parts of the plants as aqueous suspension or emulsion at a water application rate equating to 600 to 800 l/ha with addition of 0.2% wetting agent. After the test plants have been left to stand in the greenhouse under optimal growth conditions for about 3 weeks, the action of the preparations is assessed visually in comparison to untreated controls (herbicidal action in percent (%): 100% activity=the plants have died, 0% activity=like control plants).

[17] = tested on: DIGSA; experiment: Post-emergence herbicidal action against DIGSA; type: in vivo, Digitaria sanguinalis; conditions: 80 g/ha, visual assessment about 3 weeks after treatment vs untreated controls
Procedure, shortened: as §2

[18] = tested on: MATIN; experiment: Pre-emergence herbicidal action against MATIN; type: in vivo; conditions: 320 g/ha
Procedure, shortened: as §1

[19] = tested on: SETVI; experiment: Post-emergence herbicidal action against SETVI; type: in vivo, Setaria viridis; conditions: 80 g/ha, visual assessment about 3 weeks after treatment vs untreated controls
Procedure, shortened: as §2

[20] = tested on: VIOTR; experiment: Post-emergence herbicidal action against VIOTR; type: in vivo, Viola tricolor; conditions: 80 g/ha, visual assessment about 3 weeks after treatment vs untreated controls
Procedure, shortened: as §2

[21] = tested on: PHBPU; experiment: Post-emergence herbicidal action against PHBPU; type: in vivo; conditions: assessed visually after about 3 weeks, 100% = plants have died, 0% = like control plants
Method: as §3

[22] = tested on: VERPE; experiment: Post-emergence herbicidal action against VERPE; type: in vivo, Veronica persica; conditions: 80 g/ha, visual assessment about 3 weeks after treatment vs untreated controls
Method: as §3

[23] = tested on: VERPE; experiment: Pre-emergence herbicidal action against VERPE; type: in vivo, Veronica persica; conditions: 320 g/ha
Procedure, shortened: as §1

[24] = tested on: HORMU; experiment: Post-emergence herbicidal action against HORMU; type: in vivo, Hordeum murinum; conditions: 80 g/ha, visual assessment about 3 weeks after treatment vs untreated controls
Procedure, shortened: as §2

Row | Structure (SMILES) | Pre-emergence action against POLCO in % [1] [%] | Pre-emergence action against AMARE in % [2] [%] | Post-emergence action against LOLRI in % [3] [%] | Post-emergence action against ABUTH in % [4] [%] | Post-emergence action against AVEFA in % [5] [%] | Pre-emergence action against ALOMY in % [6] [%] | Pre-emergence action against VIOTR in % [7] [%] | Pre-emergence action against DIGSA in % [8] [%] | Pre-emergence action against SETVI in % [9] [%] | Pre-emergence action against AVEFA in % [10] [%] | Post-emergence action against ALOMY in % [11] [%] | Pre-emergence action against ECHCG in % [12] [%] | Post-emergence action against ECHCG in % [13] [%] | Pre-emergence action against ABUTH in % [14] [%] | Pre-emergence herbicidal action against LOLRI in % [15] [%] | Post-emergence action against POLCO in % [16] [%] | Post-emergence action against DIGSA in % [17] [%] | Post-emergence action against SETVI in % [19] [%] | Post-emergence action against VIOTR in % [20] [%] | Post-emergence action at 80 g/ha against PHBPU in % [21] [%] | also measured
1 | CC#Cc1cc(C)c(C2=C(OC(=O)OCC)C3(CCC(COC)C3)NC2=O)c(F)c1 (stereo not shown) [Example P-51] | 90 | 90 | 100 | 80 | 100 | 100 | 100 | 100 | 100 | 80 | 100 | 100 | 100 | 80 | 100 | 80 | 100 | – | – | – | –
2 | CC#Cc1cc(C)c(C2=C(O)C3(CCC(COCCC)C3)NC2=O)c(Cl)c1 (stereo not shown) [Example I-68] | – | 100 | 100 | – | – | 100 | 100 | 100 | 100 | 100 | 100 | 100 | 100 | 90 | 100 | – | 100 | 100 | 80 | 80 | Pre-emergence action against MATIN in % [18]: 100%
3 | CC#Cc1cc(Br)c(C2=C(O)[C@]3(CC[C@H](COCC)C3)NC2=O)c(OC)c1 (stereo in doubt) [Example I-11, 3-(2-Bromo-6-methoxy-4-prop-1-ynylphenyl)-8-(ethoxymethyl)-4-hydroxy-1-azaspiro[4.4]non-3-en-2-one] | – | – | 100 | – | – | 100 | 90 | 100 | 100 | 100 | 100 | 100 | 100 | – | 100 | 80 | 100 | 100 | – | – | Post-emergence action against VERPE in % [22]: 80%; Pre-emergence action against VERPE in % [23]: 100%
4 | CC#Cc1cc(Br)c(C2=C(O)C3(CCC(COCC)C3)NC2=O)c(OC)c1 (stereo not shown) [Example I-05] | 80 | – | 100 | 80 | – | 100 | 90 | 100 | 100 | 100 | 100 | 100 | 100 | 80 | 100 | 100 | 100 | 100 | – | 80 | –
5 | CC#Cc1cc(Br)c(C2=C(O)C3(CCC(COC)C3)NC2=O)c(OC)c1 (stereo not shown) [Example I-10] | 80 | – | 100 | – | – | 100 | 100 | 100 | 100 | 100 | 100 | 100 | 100 | – | 100 | 80 | 100 | 100 | – | – | Pre-emergence action against VERPE in % [23]: 100%
6 | CC#Cc1cc(C)c(C2=C(OC(=O)C(C)C)C3(CCC(COC)C3)NC2=O)c(Cl)c1 (stereo not shown) [Example P-16] | – | – | 100 | 80 | 100 | – | – | – | – | – | 100 | – | 100 | – | – | 80 | 100 | 100 | 80 | – | Post-emergence action against HORMU in % [24]: 100%
